Where two headings read alike, the source gives them in different places.
Assays:
[1] = design: method as in supplement references [1-55] as printed per drug; conditions: minimum steady-state blood plasma concentration after multiple dose administration; ref supplement references [1-55] per drug; cited from earlier work
[2] = Freeze-thaw stability in spiked pooled human plasma; format: physicochemical

Row | SMILES | cmin [1] [ng/mL] | Freeze-Thaw Accuracy [%] ([2]; validation standard 2xLLOV) | Freeze-Thaw Accuracy [%] ([2]; validation standard LLOV) | Freeze-Thaw Accuracy [%] ([2]; validation standard MOV) | Freeze-Thaw Accuracy [%] ([2]; validation standard ULOV) | Freeze-Thaw Accuracy [%] [2] [%]
1 | NC(=O)c1cccc2cn(-c3ccc([C@@H]4CCCNC4)cc3)nc12 [Niraparib] | 649 | 96.8 | 98.0 | 96.5 | 97.1 | –
2 | Cc1ccc(NC(=O)c2ccc(CN3CCN(C)CC3)cc2)cc1Nc1nccc(-c2cccnc2)n1 [Imatinib] | – | 98.5 | 100.6 | 96.7 | 96.3 | –
3 | Cn1cnc2c(F)c(Nc3ccc(Br)cc3F)c(C(=O)NOCCO)cc21 [Binimetinib] | 53.3 | 92.6 | 93.8 | 100.1 | 105.2 | –
4 | COc1cc2nccc(Oc3ccc(NC(=O)C4(C(=O)Nc5ccc(F)cc5)CC4)cc3)c2cc1OC [Cabozantinib] | 1380 | 99.6 | 90.2 | 102.2 | 95.0 | –
5 | Cc1cc(Nc2ncc(Cl)c(Nc3ccccc3S(=O)(=O)C(C)C)n2)c(OC(C)C)cc1C1CCNCC1 [Ceritinib] | 871 | 96.9 | 99.9 | 97.6 | 97.5 | –
6 | O=C(c1ccc(F)c(F)c1Nc1ccc(I)cc1F)N1CC(O)([C@@H]2CCCCN2)C1 [Cobimetinib] | 127 | 98.6 | 98.3 | 97.3 | 96.3 | –
7 | CNC(=O)c1cc(Oc2ccc(NC(=O)Nc3ccc(Cl)c(C(F)(F)F)c3)c(F)c2)ccn1 [Regorafenib] | 1400 | 97.1 | 101.6 | 96.2 | 98.6 | –
8 | COc1cc2ncnc(Nc3ccc(F)c(Cl)c3)c2cc1NC(=O)/C=C/CN1CCCCC1 [Dacomitinib] | 73.1 | 92.5 | 89.8 | 95.9 | 96.3 | –
9 | O=C1CN2Cc3c(ccc(Cl)c3Cl)N=C2N1 [Anagrelide] | – | 96.5 | 92.8 | 93.8 | 99.6 | –
10 | C#Cc1cccc(Nc2ncnc3cc(OCCOC)c(OCCOC)cc23)c1 [Erlotinib] | 1011 | 100.9 | 113.3 | 100.4 | 102.0 | –
11 | CCN(CC)CCNC(=O)c1c(C)[nH]c(/C=C2\C(=O)Nc3ccc(F)cc32)c1C [Sunitinib] | 51.6 | 102.8 | 117.0 | 99.1 | 100.3 | –
12 | COc1cc(N2CCC(N3CCN(C)CC3)CC2)ccc1Nc1ncc(Cl)c(Nc2ccccc2P(C)(C)=O)n1 [Brigatinib] | 520 | 98.7 | 111.4 | 95.5 | 97.9 | –
13 | Cc1ccc(Nc2nccc(N(C)c3ccc4c(C)n(C)nc4c3)n2)cc1S(N)(=O)=O [Pazopanib] | 24000 | 103.5 | 102.7 | 103.9 | 100.5 | –
14 | CC(=O)Nc1cccc(-n2c(=O)n(C3CC3)c(=O)c3c(Nc4ccc(I)cc4F)n(C)c(=O)c(C)c32)c1 [Trametinib] | 12.1 | 97.6 | 93.8 | 102.5 | 97.0 | –
15 | CS(=O)(=O)CCNCc1ccc(-c2ccc3ncnc(Nc4ccc(OCc5cccc(F)c5)c(Cl)c4)c3c2)o1 [Lapatinib] | 780 | 96.0 | 86.5 | 102.3 | 94.7 | –
16 | COC(=O)N[C@@H](C)CNc1nccc(-c2cn(C(C)C)nc2-c2cc(Cl)cc(NS(C)(=O)=O)c2F)n1 [Encorafenib] | 23 | 94.9 | 90.4 | 101.4 | 98.7 | –
17 | CNC(=O)c1ccc(N2C(=S)N(c3cnc(C#N)c(C(F)(F)F)c3)C(=O)C23CCC3)cc1F [Apalutamide] | 3700 | 95.6 | 93.8 | 94.8 | 95.7 | –
18 | COc1cc2ncnc(Nc3ccc(F)c(Cl)c3)c2cc1OCCCN1CCOCC1 [Gefitinib] | 291 | 97.6 | 92.4 | 97.8 | 97.1 | –
19 | Cc1[nH]c2ccccc2c1CCNCc1ccc(/C=C/C(=O)NO)cc1 [Panobinostat] | – | 107.5 | 104.3 | 98.8 | 102.3 | –
20 | Nc1cccc2c1C(=O)N(C1CCC(=O)NC1=O)C2=O (stereo not shown) [Pomalidomide] | 10.9 | 90.9 | 74.4 | 90.1 | 92.4 | –
21 | Nc1cccc2c1CN(C1CCC(=O)NC1=O)C2=O (stereo not shown) [Lenalidomide] | 13 | 104.4 | 91.0 | 97.3 | 96.8 | –

Row | SMILES | cmin [1] [ng/mL] | Freeze-Thaw Accuracy [%] ([2]; validation standard 2xLLOV) | Freeze-Thaw Accuracy [%] ([2]; validation standard LLOV) | Freeze-Thaw Accuracy [%] ([2]; validation standard MOV) | Freeze-Thaw Accuracy [%] ([2]; validation standard ULOV) | Freeze-Thaw Accuracy [%] [2] [%]
22 | Cc1cn(-c2cc(NC(=O)c3ccc(C)c(Nc4nccc(-c5cccnc5)n4)c3)cc(C(F)(F)F)c2)cn1 [Nilotinib] | 1165 | 98.5 | 92.8 | 100.9 | 96.0 | –
23 | CN(C)C(=O)c1cc2cnc(Nc3ccc(N4CCNCC4)cn3)nc2n1C1CCCC1 [Ribociclib] | 732 | 103.9 | 86.3 | – | 92.4 | –
24 | Cc1ccc(C(=O)Nc2ccc(CN3CCN(C)CC3)c(C(F)(F)F)c2)cc1C#Cc1cnc2cccnn12 [Ponatinib] | 34 | 101.8 | – | 99.3 | 100.2 | 101.5
25 | COc1cc2nccc(Oc3ccc(NC(=O)Nc4cc(C)on4)c(Cl)c3)c2cc1OC [Tivozanib] | 80 | 96.8 | 90.0 | 99.9 | 98.1 | –
26 | O=C(c1cc(Cc2n[nH]c(=O)c3ccccc23)ccc1F)N1CCN(C(=O)C2CC2)CC1 [Olaparib] | 1570 | 99.5 | 113.4 | 96.6 | 100.5 | –
27 | C[C@H]1Oc2cc(cnc2N)-c2c(nn(C)c2C#N)CN(C)C(=O)c2ccc(F)cc21 [Lorlatinib] | 150 | 95.0 | 96.0 | 95.2 | 97.6 | –
28 | CC1(C)CCC(CN2CCN(c3ccc(C(=O)NS(=O)(=O)c4ccc(NCC5CCOCC5)c([N+](=O)[O-])c4)c(Oc4cnc5[nH]ccc5c4)c3)CC2)=C(c2ccc(Cl)cc2)C1 [Venetoclax] | 520 | 102.4 | 105.4 | 97.8 | 101.9 | –
29 | CNC(=O)c1cc(Oc2ccc(NC(=O)Nc3ccc(Cl)c(C(F)(F)F)c3)cc2)ccn1 [Sorafenib] | 3750 | 97.6 | 103.3 | 96.9 | 98.7 | –
30 | N#CC[C@H](C1CCCC1)n1cc(-c2ncnc3[nH]ccc23)cn1 [Ruxolitinib] | 11.4 | 94.7 | 92.5 | 96.2 | 97.2 | –
31 | COc1cc2c(Nc3ccc(Br)cc3F)ncnc2cc1OCC1CCN(C)CC1 [Vandetanib] | 795 | 97.2 | 83.4 | 101.5 | 94.0 | –
32 | CNC(=O)c1ccccc1Sc1ccc2c(/C=C/c3ccccn3)n[nH]c2c1 [Axitinib] | 5 | 108.3 | 102.1 | 105.4 | 104.0 | –
33 | Cc1nc(Nc2ncc(C(=O)Nc3c(C)cccc3Cl)s2)cc(N2CCN(CCO)CC2)n1 [Dasatinib] | 2.61 | 99.1 | 108.8 | 99.1 | 102.2 | –
34 | CO[C@@H]1[C@H](N(C)C(=O)c2ccccc2)C[C@H]2O[C@]1(C)n1c3ccccc3c3c4c(c5c6ccccc6n2c5c31)C(=O)NC4 [Midostaurin] | – | 95.9 | 100.6 | 94.6 | 97.4 | –
35 | O=C(Nc1cnn2ccc(N3CCC[C@@H]3c3cc(F)ccc3F)nc12)N1CC[C@H](O)C1 [Larotrectinib] | 5.14 | 100.6 | 97.9 | 100.3 | 102.3 | –
36 | O=c1[nH]c(=O)n([C@H]2C[C@H](O)[C@@H](CO)O2)cc1C(F)(F)F [Trifluridine] | – | 101.6 | 80.9 | 94.4 | 91.6 | –
37 | CN(C)C/C=C/C(=O)Nc1cc2c(Nc3ccc(F)c(Cl)c3)ncnc2cc1O[C@H]1CCOC1 [Afatinib] | 14.4 | 100.0 | 93.5 | 96.1 | 95.0 | –
38 | CCN1CCN(Cc2ccc(Nc3ncc(F)c(-c4cc(F)c5nc(C)n(C(C)C)c5c4)n3)nc2)CC1 [Abemaciclib] | 181 | 96.4 | 90.4 | 102.7 | 105.3 | –
39 | CNCc1ccc(-c2[nH]c3cc(F)cc4c3c2CCNC4=O)cc1 [Rucaparib] | 1754 | 93.7 | 104.4 | 97.8 | 95.5 | –
40 | COC(=O)c1ccc2c(c1)NC(=O)/C2=C(\Nc1ccc(N(C)C(=O)CN2CCN(C)CC2)cc1)c1ccccc1 [Nintedanib] | 13.1 | 103.0 | 93.2 | 96.9 | 95.8 | –
41 | CCCS(=O)(=O)Nc1ccc(F)c(C(=O)c2c[nH]c3ncc(-c4ccc(Cl)cc4)cc23)c1F [Vemurafenib] | 39000 | 98.2 | 101.9 | 97.5 | 99.2 | –
